The first assay relates to male Std:ddY mice. Kind of assay: Phenyl-1,4-benzoquinone-induced writhing test. Type of assay: in vivo. Conditions: Mus musculus, po, 1 h, orally administered at a dose of 10 mg/kg, 60 minutes before PBQ, read-out: Inhibitory percentage (%). As to the method: Phenyl-1,4-benzoquinone-induced Writhing Test Referring to the method disclosed in Proc. Soc. exp. Biol. […] For oral administration, a test compound was suspended in 0.5% tragacanth solution. […] In the control group, a physiological saline solution containing 10% Tween 80 and 10% ethanol was administered in the case of subcutaneous administration, or a 0.5% tragacanth solution was administered in the case of oral administration. The number of writhing movements in the test compound-treated group was compared with that in the control group, and the writhing inhibitory percentage was calculated therefrom and considered as an analgesic effect. Writhing inhibitory percentage (%)=[(A−B)/A]×100 In the above equation, A means the number of writhing movements in the control group, and B means the number of writhing movements in the test compound-treated group. From the writhing inhibitory percentage of the test compound, ED50 (mg/kg) was calculated by logit analysis.
Background: An intraperitoneal irritant provokes the stretching counted in writhing tests.
As to `COc1cc(CC(=O)Nc2cccc(-c3ccccc3SC)c2)ccc1OCCN` [Example 158, 4-(2-aminoethoxy)-3-methoxy-N-[3-(2-methylthiophenyl)-phenyl]phenylacetamide], the inhibition in vivo at 10 mg/kg turned out to be 95.1%.
The same measure, in the same setting: then `COc1cc(CC(=O)Nc2cccc(CCc3ccccc3F)c2)ccc1OCCN` [Example 219, 4-(2-aminoethoxy)-3-methoxy-N-[3-[2-(2-fluorophenyl)ethyl]-phenyl]phenylacetamide], with 94%; and `COc1cc(CC(=O)Nc2cccc(-c3ccccc3)c2)ccc1OCCN.Cl` [Example 63, 4-(2-aminoethoxy)-3-methoxy-N-(3-phenylphenyl)phenylacetamide], with 100%.
Consider `COc1cc(CC(=O)Nc2cccc(CCc3cccc(C)c3)c2)ccc1OCCN` [Example 217, 4-(2-aminoethoxy)-3-methoxy-N-[3-[2-(3-methylphenyl)ethyl]-phenyl]phenylacetamide], for which the inhibition in vivo at 10 mg/kg stood at 96.3%.
Same read-out and setting: the figure for `COc1cc(CC(=O)Nc2cccc(-c3cccc(-c4ccccc4)c3)c2)ccc1OCCN` [Example 145, 4-(2-aminoethoxy)-3-methoxy-N-[3-(3-phenylphenyl)phenyl]-phenylacetamide] is 85.9%.
As to `COc1cc(CC(=O)Nc2cccc(C3CCC(C(C)(C)C)CC3)c2)ccc1OC(C)=O` (stereo not drawn) [Example 69, 4-acetoxy-N-[3-(4-tert-butylcyclohexan-1-yl)phenyl]-3-methoxyphenylacetamide], the inhibition in vivo at 10 mg/kg worked out at 73.5%.

Staying with this assay, now noted: Mus musculus, po, oral administration, writhing inhibition, logit analysis, read-out: ED50 (mg/kg po).
As to `COc1cc(CC(=O)Nc2cccc(-c3ccccc3SC)c2)ccc1OCCN` [Example 158, 4-(2-aminoethoxy)-3-methoxy-N-[3-(2-methylthiophenyl)-phenyl]phenylacetamide], the ED50 amounted to 2.12 mg/kg.
The same measure, in the same setting: the figure for `COc1cc(CC(=O)Nc2cccc(CCc3ccccc3F)c2)ccc1OCCN` [Example 219, 4-(2-aminoethoxy)-3-methoxy-N-[3-[2-(2-fluorophenyl)ethyl]-phenyl]phenylacetamide] is 1.46 mg/kg; for `COc1cc(CC(=O)Nc2cccc(CCc3cccc(C)c3)c2)ccc1OCCN` [Example 217, 4-(2-aminoethoxy)-3-methoxy-N-[3-[2-(3-methylphenyl)ethyl]-phenyl]phenylacetamide] it is 1.13 mg/kg; for `COc1cc(CC(=O)Nc2cccc(C3CCC(C(C)(C)C)CC3)c2)ccc1OC(C)=O` (stereo not drawn) [Example 69, 4-acetoxy-N-[3-(4-tert-butylcyclohexan-1-yl)phenyl]-3-methoxyphenylacetamide] it is 2.81 mg/kg.

Still in this assay, the particulars now being: Mus musculus, sc, 1 h, subcutaneously administered at a dose of 1 mg/kg, 60 minutes before PBQ, read-out: Inhibitory percentage (%).
Take `COc1cc(CC(=O)Nc2cccc(C3CC(C)CC(C)C3)c2)ccc1O` (stereo not drawn) [Example 85, N-[3-(3,5-dimethylcyclohexan-1-yl)phenyl]-4-hydroxy-3-methoxyphenylacetamide]: the inhibition in vivo at 1 mg/kg came to 76.9%.
The same measure, in the same setting: the figure for `COc1cc(CC(=O)Nc2cccc(CCc3ccccc3)c2)ccc1O` [Example 54, 4-hydroxy-3-methoxy-N-[3-(2-phenylethyl)phenyl]phenylacetamide] is 90.4%; for `COc1cc(CC(=O)Nc2cccc(-c3ccccc3)c2)ccc1OCCN.Cl` [Example 63, 4-(2-aminoethoxy)-3-methoxy-N-(3-phenylphenyl)phenylacetamide] it is 100%; for `COc1cc(CC(=O)Nc2cccc(C3CCCCC3c3ccccc3)c2)ccc1O` (stereo not drawn) [Example 11, 4-hydroxy-3-methoxy-N-[3-(2-phenylcyclohexan-1-yl)phenyl]-phenylacetamide] it is 88.4%.
Same read-out and setting: the figure for `COc1cc(CC(=O)Nc2ccc3ccn(Cc4ccccc4)c3c2)ccc1OCCN` [Example 238, 4-(2-aminoethoxy)-3-methoxy-N-[1-benzylindol-6-yl]phenylacetamide] is 70.2%.
Still for that read-out and setting: then `COc1cc(CC(=O)Nc2cccc(N3CCC(C(C)(C)C)CC3)c2)ccc1O` [Example 86, N-[3-(4-tert-butylpiperidin-1-yl)phenyl]-4-hydroxy-3-methoxyphenylacetamide], with 78.8%; and `COc1cc(CC(=O)Nc2cccc(C3CCC(C(C)(C)C)CC3)c2)ccc1OC(C)=O` (stereo not drawn) [Example 69, 4-acetoxy-N-[3-(4-tert-butylcyclohexan-1-yl)phenyl]-3-methoxyphenylacetamide], with 99%; and `COc1cc(CC(=O)Nc2cccc(-c3ccc(Cl)s3)c2)ccc1O` [Example 100, 4-hydroxy-3-methoxy-N-[3-(2-chlorothiophen-5-yl)phenyl]-phenylacetamide], with 100%.

The same assay, now with this note: Mus musculus, sc, subcutaneous administration, writhing inhibition, logit analysis, read-out: ED50 (mg/kg sc).
Turning to `COc1cc(CC(=O)Nc2cccc(C3CC(C)CC(C)C3)c2)ccc1O` (stereo not drawn) [Example 85, N-[3-(3,5-dimethylcyclohexan-1-yl)phenyl]-4-hydroxy-3-methoxyphenylacetamide], the ED50 was 0.31 mg/kg.
`COc1cc(CC(=O)Nc2cccc(CCc3ccccc3)c2)ccc1O` [Example 54, 4-hydroxy-3-methoxy-N-[3-(2-phenylethyl)phenyl]phenylacetamide]: the ED50 was not above 0.1 mg/kg.
On the same count and under the same terms, the figure for `COc1cc(CC(=O)Nc2cccc(C3CCCCC3c3ccccc3)c2)ccc1O` (stereo not drawn) [Example 11, 4-hydroxy-3-methoxy-N-[3-(2-phenylcyclohexan-1-yl)phenyl]-phenylacetamide] is 0.19 mg/kg; for `COc1cc(CC(=O)Nc2ccc3ccn(Cc4ccccc4)c3c2)ccc1OCCN` [Example 238, 4-(2-aminoethoxy)-3-methoxy-N-[1-benzylindol-6-yl]phenylacetamide] it is 0.37 mg/kg.
The same measure, in the same setting: the figure for `COc1cc(CC(=O)Nc2cccc(N3CCC(C(C)(C)C)CC3)c2)ccc1O` [Example 86, N-[3-(4-tert-butylpiperidin-1-yl)phenyl]-4-hydroxy-3-methoxyphenylacetamide] is 0.33 mg/kg; for `COc1cc(CC(=O)Nc2cccc(C3CCC(C(C)(C)C)CC3)c2)ccc1OC(C)=O` (stereo not drawn) [Example 69, 4-acetoxy-N-[3-(4-tert-butylcyclohexan-1-yl)phenyl]-3-methoxyphenylacetamide] it is not above 0.1 mg/kg.

The same assay, now with this note: oral administration, writhing inhibition, logit analysis.
Consider `COc1cc(CC(=O)Nc2cc(-c3ccccc3)ccc2F)ccc1OCCN` [Example 170, 4-(2-aminoethoxy)-N-[(2-fluoro-5-phenyl)phenyl]-3-methoxyphenylacetamide], for which the “ED50 (mg/kg po)” value was determined as 1.06 mg/kg.

Still in this assay, the particulars now being: oral administration, writhing inhibition, logit analysis, listed as Ex. 63.
As for `COc1cc(CC(=O)Nc2cccc(-c3ccccc3)c2)ccc1OCCN.Cl` [Example 63, 4-(2-aminoethoxy)-3-methoxy-N-(3-phenylphenyl)phenylacetamide], the “ED50 (mg/kg po)” value stood at 0.021 mg/kg.

The same assay, now with this note: subcutaneous administration, writhing inhibition, logit analysis, listed as Ex. 54.
On to `COc1cc(CC(=O)Nc2cccc(CCc3ccccc3)c2)ccc1O` [Example 54, 4-hydroxy-3-methoxy-N-[3-(2-phenylethyl)phenyl]phenylacetamide], for which the “ED50 (mg/kg sc)” value is recorded as 0.081 mg/kg.

Staying with this assay, now noted: subcutaneous administration, writhing inhibition, logit analysis, listed as Ex. 63.
On to `COc1cc(CC(=O)Nc2cccc(-c3ccccc3)c2)ccc1OCCN.Cl` [Example 63, 4-(2-aminoethoxy)-3-methoxy-N-(3-phenylphenyl)phenylacetamide], for which the “ED50 (mg/kg sc)” value came out at 0.016 mg/kg.

Staying with this assay, now noted: subcutaneous administration, writhing inhibition, logit analysis, listed as Ex. 69.
For `COc1cc(CC(=O)Nc2cccc(C3CCC(C(C)(C)C)CC3)c2)ccc1OC(C)=O` (stereo not drawn) [Example 69, 4-acetoxy-N-[3-(4-tert-butylcyclohexan-1-yl)phenyl]-3-methoxyphenylacetamide], the “ED50 (mg/kg sc)” value is 0.088 mg/kg.

Still in this assay, the particulars now being: writhing inhibition, orally administered at a dose of 10 mg/kg, 60 minutes before PBQ.
With `COc1cc(CC(=O)Nc2cc(-c3ccccc3)ccc2F)ccc1OCCN` [Example 170, 4-(2-aminoethoxy)-N-[(2-fluoro-5-phenyl)phenyl]-3-methoxyphenylacetamide], the “Inhibitory percentage (%)” value is 87.9%.

The values are drawn from US7084176B2, “N-arylphenylacetamide derivatives and medicinal compositions containing the same” (Dainippon Pharmaceutical Co., Ltd., priority 2001, dated 2006).
